From patent US20250059182A1, “SOS1 INHIBITORS” (Mirati Therapeutics, Inc., priority 2021, published 2025)
Where a name gives a salt, the structure may show the parent alone.

tested on: pERK in MKN1 cells; assay: pERK inhibition, In-Cell Western (LI-COR Odyssey), MKN1 cells; format: cell-based; details: Homo sapiens, MKN-1, Table B1; MKN1 or H358 cells (table does not say which); 0.5-1 hour incubation; read-out: IC50 (nM), pERK inhibition
Method: This Example illustrates that exemplary compounds of the present invention prevent KRas-mediated GTP nucleotide exchange mediated by SOS1 to inhibit KRas activity thereby inhibiting the generation of the downstream effector pERK.
MKN1 cells (15,000/w) or H358 (30,000/w) were seeded in a black clear flat bottom 96-well cell culture plate (Corning, #3904) and incubated at 37° C. overnight. Assay day 1, cells were dosed with compounds of Formula (I) with a 10 μm starting concentration and serially diluted 3× for a total of 9 concentrations. The cells were incubated for approximately 0.5-1 hour with the compounds solubilized in DMSO at 37° C. Cells were immediately fixed by adding 50 μL of 4% formaldehyde to all wells in a fume hood and the plates were incubated for 20 minutes at room temperature. The formaldehyde was discarded from the plates and 150 μL of ice-cold methanol was added to permeabilize the cells for 10 minutes at −20° C. The methanol was discarded from each of the plates and any liquid remaining in the plate by tapping the plate against paper towels. Cells were then blocked with 150 μL of Odyssey blocking buffer (LI-COR Biosciences #927-50010) using 0.05% Tween for 1 hour at room temperature on a shaker. The blocking buffer was discarded and 50 μL of primary antibodies pERK (cell signaling Technology #9101L; Rabbit, 1:500) and GapDH (Millipore #MAB34; Mouse, 1:5000) diluted in Odyssey blocking buffer was added. The plates were incubated overnight at 4° C. on a shaker.
On Assay day 2, the primary antibody solution was removed. Each plate was washed 3× times with 150 μL of 1×PBST (PBS+0.1% Tween 20) and incubated with 50 μL of secondary antibodies: Anti-Rabbit (LI-COR Biosciences #926-32211) and Anti-Mouse (LI-COR Biosciences #68070) at 1:800 dilution in Odyssey blocking buffer with Tween at room temperature on a shaker for 2 hours (protected from light). The secondary antibody solution as removed and each plate was washed with PBST 3× times. Any liquid remaining was discarded and the plate was imaged using the Licor Odyssey machine according to the manufacturer's instruction, using a set focus length at 3 mm and both 800 nm and 700 nm filters. The GAPDH normalized scan values for each well were divided by the average of vehicle wells to get the % of pERK inhibition. The IC50 values were then calculated with the Graph pad Prism software.

IC50	Structure (SMILES)
120 nM	Cc1c(C#N)cccc1[C@@H](C)Nc1nnc(C)c2cnc(N3CCc4nn(C)cc4C3)cc12 [Example P-51, (R)-2-methyl-3-(1-((4-methyl-7-(2-methyl-2,4,6,7-tetrahydro-5H-pyrazolo[4,3-c]pyridin-5-yl)pyrido[3,4-d]pyridazin-1-yl)amino)ethyl)benzonitrile]
57 nM	Cc1c(C#N)cccc1[C@@H](C)Nc1nnc(C)c2c(C)nc(N3CCN(C)CC3)cc12 [Example P-189, (R)-3-(1-((4,5-dimethyl-7-(4-methylpiperazin-1-yl)pyrido[3,4-d]pyridazin-1-yl)amino)ethyl)-2-methylbenzonitrile]
68.4 nM	Cc1c(C#N)cccc1[C@@H](C)Nc1nnc(C)c2cnc(N3CCC34CN(CCCF)C4)cc12 [Example P-228, (R)-3-(1-((7-(6-(3-fluoropropyl)-1,6-diazaspiro[3.3]heptan-1-yl)-4-methylpyrido[3,4-d]pyridazin-1-yl)amino)ethyl)-2-methylbenzonitrile]

same assay, conditions: Homo sapiens, MKN-1, Table B; MKN1 or H358 cells (table does not say which); 0.5-1 hour incubation; read-out: IC50 (nM), pERK inhibition

IC50	Structure (SMILES)
286 nM	Cc1c(C#N)cccc1[C@@H](C)Nc1nnc(C)c2cc(Cl)c(N3CCOCC3)cc12 [7-2, (R)-3-(1-((6-chloro-4-methyl-7-morpholinophthalazin-1-yl)amino)ethyl)-2-methylbenzonitrile]
52.3 nM	Cc1nnc(N[C@H](C)c2cccc(C(F)(F)F)c2F)c2cc(N(C)[C@H]3CCN(C)C3)ncc12 [Example 1-28, N^1-((R)-1-(2-fluoro-3-(trifluoromethyl)phenyl)ethyl)-N^7,4-dimethyl-N^7-((S)-1-methylpyrrolidin-3-yl)pyrido[3,4-d]pyridazine-1,7-diamine]
41 nM	Cc1nnc(N[C@H](C)c2cccc(C(F)(F)F)c2F)c2cc(N(C)[C@@H]3CCN(C)C3)ncc12 [Example 1-29, N^1-((R)-1-(2-fluoro-3-(trifluoromethyl)phenyl)ethyl)-N^7,4-dimethyl-N^7-((R)-1-methylpyrrolidin-3-yl)pyrido[3,4-d]pyridazine-1,7-diamine]
250 nM	Cc1c(C#N)cccc1[C@@H](C)Nc1nnc(C)c2cnc(N[C@H]3CCN(C)C3)cc12 [Example 1-30, 2-methyl-3-((R)-1-((4-methyl-7-(((S)-1-methylpyrrolidin-3-yl)amino)pyrido[3,4-d]pyridazin-1-yl)amino)ethyl)benzonitrile]
128 nM	Cc1c(C#N)cccc1[C@@H](C)Nc1nnc(C)c2cnc(N[C@@H]3CCN(C)C3)cc12 [Example 1-31, 2-methyl-3-((R)-1-((4-methyl-7-(((R)-1-methylpyrrolidin-3-yl)amino)pyrido[3,4-d]pyridazin-1-yl)amino)ethyl)benzonitrile]
99 nM	Cc1c(C#N)cccc1[C@@H](C)Nc1nnc(C)c2cnc(N3CCN(C)C(=O)C3)cc12 [Example 1-45, (R)-2-methyl-3-(1-((4-methyl-7-(4-methyl-3-oxopiperazin-1-yl)pyrido[3,4-d]pyridazin-1-yl)amino)ethyl)benzonitrile]
121 nM	Cc1c(C#N)cccc1[C@@H](C)Nc1nnc(C)c2cnc(N3C[C@@H](C)N(C)[C@@H](C)C3)cc12 [Example 1-67, 2-methyl-3-((R)-1-((4-methyl-7-((3R,5S)-3,4,5-trimethylpiperazin-1-yl)pyrido[3,4-d]pyridazin-1-yl)amino)ethyl)benzonitrile]
61 nM	Cc1c(C#N)cccc1[C@@H](C)Nc1nnc(C)c2cnc(N3C[C@H](C)N(C)[C@@H](C)C3)cc12 [Example 1-68, 2-methyl-3-((R)-1-((4-methyl-7-((3S,5S)-3,4,5-trimethylpiperazin-1-yl)pyrido[3,4-d]pyridazin-1-yl)amino)ethyl)benzonitrile]
590 nM	Cc1c(C#N)cccc1[C@@H](C)Nc1nnc(C)c2cnc(N3C[C@@H]4C[C@H]3CN4)cc12 [Example 1-75, 3-((R)-1-((7-((1S,4S)-2,5-diazabicyclo[2.2.1]heptan-2-yl)-4-methylpyrido[3,4-d]pyridazin-1-yl)amino)ethyl)-2-methylbenzonitrile]
53.9 nM	Cc1c(C#N)cccc1[C@@H](C)Nc1nnc(C)c2cnc(N(C)[C@@H]3CCN(C(C)C)C3)cc12 [Example 1-78, 3-((R)-1-((7-(((R)-1-isopropylpyrrolidin-3-yl)(methyl)amino)-4-methylpyrido[3,4-d]pyridazin-1-yl)amino)ethyl)-2-methylbenzonitrile]
75.2 nM	Cc1c(C#N)cccc1[C@@H](C)Nc1nnc(C)c2cnc(N(C)[C@H]3CCN(C(C)C)C3)cc12 [Example 1-79, 3-((R)-1-((7-(((S)-1-isopropylpyrrolidin-3-yl)(methyl)amino)-4-methylpyrido[3,4-d]pyridazin-1-yl)amino)ethyl)-2-methylbenzonitrile]
60.9 nM	Cc1c(C#N)cccc1[C@@H](C)Nc1nnc(C)c2cnc(N3CC4(COC4)C3)cc12 [Example 1-80, (R)-2-methyl-3-(1-((4-methyl-7-(2-oxa-6-azaspiro[3.3]heptan-6-yl)pyrido[3,4-d]pyridazin-1-yl)amino)ethyl)benzonitrile]
186 nM	Cc1nnc(N[C@H](C)c2ccc(C#N)cc2F)c2cc(N3CCN(C)CC3)ncc12 [Example 1-98, (R)-3-fluoro-4-(1-((4-methyl-7-(4-methylpiperazin-1-yl)pyrido[3,4-d]pyridazin-1-yl)amino)ethyl)benzonitrile]
109 nM	Cc1c(C#N)cccc1[C@@H](C)Nc1nnc(C)c2cc(F)c(N3CC(C)(N(C)C)C3)cc12 [Example 4-8, (R)-3-(1-((7-(3-(dimethylamino)-3-methylazetidin-1-yl)-6-fluoro-4-methylphthalazin-1-yl)amino)ethyl)-2-methylbenzonitrile]
120 nM	Cc1c(C#N)cccc1[C@@H](C)Nc1nnc(C)c2cc(F)c(N3CCOCC3)cc12 [Example 4-12, (R)-3-(1-((6-fluoro-4-methyl-7-morpholinophthalazin-1-yl)amino)ethyl)-2-methylbenzonitrile]
165 nM	COc1cc2c(C)nnc(N[C@H](C)c3cccc(C#N)c3C)c2cc1O[C@H]1CCOC1 [Example 6-15, 3-((R)-1-((6-methoxy-4-methyl-7-(((S)-tetrahydrofuran-3-yl)oxy)phthalazin-1-yl)amino)ethyl)-2-methylbenzonitrile]

same assay, conditions: Homo sapiens, MKN-1, read-out: IC50 (nM), pERK inhibition

Structure (SMILES)	IC50
COc1cc2cnnc(N[C@H](C)c3cccc4ccccc34)c2cc1OC [Example P-210, (R)-6,7-dimethoxy-N-(1-(naphthalen-1-yl)ethyl)phthalazin-1-amine formic acid salt]	> 10000 nM
Cc1c(Br)cccc1[C@@H](C)Nc1nnc(C)c2cnc(N3CCOCC3)cc12 [Example P-213, (R)-N-(1-(3-bromo-2-methylphenyl)ethyl)-4-methyl-7-morpholinopyrido[3,4-d]pyridazin-1-amine formic acid salt]	114 nM

target: T1, recombinant human SOS1 polypeptide (amino acids 560-1049) (Homo sapiens, UniProt Q07889); assay: HTRF displacement assay: inhibition of labeled tracer binding to SOS1; details: Table A, Morrison equation for competitive binding
T1 construct: corresponding to amino acids 560-1049, expressed in E. Coli; made in house; host or cells: E. coli
T1 sequence (Q07889 560-1049): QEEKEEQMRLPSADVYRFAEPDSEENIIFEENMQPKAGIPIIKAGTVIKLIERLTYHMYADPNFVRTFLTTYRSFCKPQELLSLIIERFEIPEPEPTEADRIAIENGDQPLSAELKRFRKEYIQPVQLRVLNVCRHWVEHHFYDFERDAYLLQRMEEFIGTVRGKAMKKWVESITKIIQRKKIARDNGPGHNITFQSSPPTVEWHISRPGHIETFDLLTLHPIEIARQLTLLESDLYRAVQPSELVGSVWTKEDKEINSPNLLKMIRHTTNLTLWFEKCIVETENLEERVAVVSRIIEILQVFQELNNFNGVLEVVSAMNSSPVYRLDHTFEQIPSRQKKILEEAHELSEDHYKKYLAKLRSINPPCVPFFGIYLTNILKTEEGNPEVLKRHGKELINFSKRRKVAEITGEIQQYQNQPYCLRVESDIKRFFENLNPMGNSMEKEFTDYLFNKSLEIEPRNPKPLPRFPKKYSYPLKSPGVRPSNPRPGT

Structure (SMILES)	Ki
Cc1nnc(N[C@H](C)c2cccc(C(F)F)c2F)c2cc(N3CCN(C)CC3)c(F)cc12 [Example 4-20, (R)-N-(1-(3-(difluoromethyl)-2-fluorophenyl)ethyl)-6-fluoro-4-methyl-7-(4-methylpiperazin-1-yl)phthalazin-1-amine]	0.547 nM
Cc1nnc(N[C@H](C)c2cccc(C(C)(F)F)c2F)c2cc(N3CCN(C)CC3)c(C#N)cc12 [Example 6-21, (R)-1-((1-(3-(1,1-difluoroethyl)-2-fluorophenyl)ethyl)amino)-4-methyl-7-(4-methylpiperazin-1-yl)phthalazine-6-carbonitrile]	1.05 nM
